This note sets out measurements from publication PMC9927415, “Tyrosine Kinase Inhibitors Display Potent Activity against Cryptosporidium parvum” (Microbiology Spectrum, 2022).

Common to all, as to test: KINOMEscan competitive binding, whole panel
The target in experiment [1] is T1, panel of 203 kinases (Homo sapiens, UniProt Q99683).
T1 construct: purchased DiscoverX (KINOMEscan)
T1 sequence (Q99683 1-1374): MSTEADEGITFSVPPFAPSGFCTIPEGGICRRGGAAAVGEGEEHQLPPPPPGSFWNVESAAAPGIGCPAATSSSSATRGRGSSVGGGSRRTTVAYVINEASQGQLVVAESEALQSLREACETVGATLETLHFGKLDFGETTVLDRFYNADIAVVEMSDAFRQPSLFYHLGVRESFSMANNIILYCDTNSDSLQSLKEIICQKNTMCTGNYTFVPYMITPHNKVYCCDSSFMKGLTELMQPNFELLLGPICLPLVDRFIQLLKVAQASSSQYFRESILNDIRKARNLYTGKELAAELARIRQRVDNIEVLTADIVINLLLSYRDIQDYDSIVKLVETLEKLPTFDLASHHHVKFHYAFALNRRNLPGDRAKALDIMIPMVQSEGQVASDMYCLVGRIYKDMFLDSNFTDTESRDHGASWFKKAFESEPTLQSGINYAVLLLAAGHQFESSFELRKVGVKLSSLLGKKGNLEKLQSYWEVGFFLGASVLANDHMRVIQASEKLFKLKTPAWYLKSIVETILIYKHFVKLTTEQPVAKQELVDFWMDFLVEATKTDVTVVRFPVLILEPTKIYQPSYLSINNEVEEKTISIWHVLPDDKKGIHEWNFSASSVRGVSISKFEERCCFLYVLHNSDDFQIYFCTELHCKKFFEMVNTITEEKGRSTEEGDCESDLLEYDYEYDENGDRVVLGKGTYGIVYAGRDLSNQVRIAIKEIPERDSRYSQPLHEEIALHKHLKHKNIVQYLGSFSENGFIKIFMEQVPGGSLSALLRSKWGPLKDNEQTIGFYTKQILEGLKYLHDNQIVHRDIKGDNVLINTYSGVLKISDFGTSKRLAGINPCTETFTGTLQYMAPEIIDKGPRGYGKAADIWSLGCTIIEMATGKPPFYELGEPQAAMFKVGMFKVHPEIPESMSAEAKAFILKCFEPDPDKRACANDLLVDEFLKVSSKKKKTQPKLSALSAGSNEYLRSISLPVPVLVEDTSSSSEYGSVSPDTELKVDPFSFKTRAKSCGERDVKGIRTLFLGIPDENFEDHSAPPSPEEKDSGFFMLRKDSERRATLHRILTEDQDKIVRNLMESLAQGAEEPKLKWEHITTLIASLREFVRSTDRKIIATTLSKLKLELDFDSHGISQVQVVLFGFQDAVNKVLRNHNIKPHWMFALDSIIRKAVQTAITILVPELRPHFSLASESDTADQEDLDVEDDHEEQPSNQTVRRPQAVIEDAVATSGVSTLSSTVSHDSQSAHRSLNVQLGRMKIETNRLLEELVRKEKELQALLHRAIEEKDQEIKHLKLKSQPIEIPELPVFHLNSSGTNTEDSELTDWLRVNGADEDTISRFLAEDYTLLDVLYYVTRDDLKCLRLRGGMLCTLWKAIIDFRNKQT
Conditions: 10 µM, n=1; kinase MAP3K5; read-out: Percent inhibition MAP3K5. Put shortly:
(§1)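 This competitive binding format measures displacement of T7 phage-tagged kinases from an immobilized ATP-site ligand by the test compound; values are percentage inhibition.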

For experiment [2], the target named is T2, panel of 203 kinases (Homo sapiens, UniProt Q8IVH8).
T2 construct: purchased DiscoverX (KINOMEscan)
T2 sequence (Q8IVH8 1-894): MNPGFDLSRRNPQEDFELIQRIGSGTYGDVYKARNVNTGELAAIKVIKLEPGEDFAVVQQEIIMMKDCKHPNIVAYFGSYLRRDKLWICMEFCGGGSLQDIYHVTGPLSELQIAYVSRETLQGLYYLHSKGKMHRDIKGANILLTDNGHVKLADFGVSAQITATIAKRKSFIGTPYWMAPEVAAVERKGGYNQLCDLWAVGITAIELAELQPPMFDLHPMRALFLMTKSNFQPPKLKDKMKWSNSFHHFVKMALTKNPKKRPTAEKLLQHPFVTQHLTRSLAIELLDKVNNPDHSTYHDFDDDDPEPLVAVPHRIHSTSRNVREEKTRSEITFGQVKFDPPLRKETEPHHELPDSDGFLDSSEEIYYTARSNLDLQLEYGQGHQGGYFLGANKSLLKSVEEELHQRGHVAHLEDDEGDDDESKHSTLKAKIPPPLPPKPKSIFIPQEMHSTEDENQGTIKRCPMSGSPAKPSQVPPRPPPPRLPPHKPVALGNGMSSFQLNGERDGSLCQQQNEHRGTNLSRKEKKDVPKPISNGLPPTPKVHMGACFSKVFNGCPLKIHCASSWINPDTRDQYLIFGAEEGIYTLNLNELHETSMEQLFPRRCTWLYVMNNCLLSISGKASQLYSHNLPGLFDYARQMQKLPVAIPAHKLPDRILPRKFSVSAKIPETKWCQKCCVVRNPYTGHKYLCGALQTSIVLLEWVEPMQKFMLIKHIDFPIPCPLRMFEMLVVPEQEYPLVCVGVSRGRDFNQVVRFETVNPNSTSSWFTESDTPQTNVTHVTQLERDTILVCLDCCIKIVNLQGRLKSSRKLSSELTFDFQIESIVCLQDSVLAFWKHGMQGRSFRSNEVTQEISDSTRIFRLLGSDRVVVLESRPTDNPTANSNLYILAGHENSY
The settings on record: 10 µM, n=1; kinase MAP4K3; read-out: Percent inhibition MAP4K3. Put shortly: as §1

The target of experiment [3] is T3, panel of 203 kinases (Homo sapiens, UniProt P08069).
T3 construct: purchased DiscoverX (KINOMEscan)
Conditions: 10 µM, n=1; kinase IGF1R; read-out: Percent inhibition IGF1R. In a few lines:
as §1

The target of experiment [4] is T4, panel of 203 kinases (Homo sapiens, UniProt Q9HBH9).
T4 construct: purchased DiscoverX (KINOMEscan)
The settings on record: 10 µM, n=1; kinase MKNK2; read-out: Percent inhibition MKNK2. In a few lines: as §1

In experiment [5] the target is T5, panel of 203 kinases (Homo sapiens, UniProt P29376).
T5 construct: purchased DiscoverX (KINOMEscan)
Conditions: 10 µM, n=1; kinase LTK; read-out: Percent inhibition LTK. In a few lines: as §1

T3 sequence (P08069 31-1367): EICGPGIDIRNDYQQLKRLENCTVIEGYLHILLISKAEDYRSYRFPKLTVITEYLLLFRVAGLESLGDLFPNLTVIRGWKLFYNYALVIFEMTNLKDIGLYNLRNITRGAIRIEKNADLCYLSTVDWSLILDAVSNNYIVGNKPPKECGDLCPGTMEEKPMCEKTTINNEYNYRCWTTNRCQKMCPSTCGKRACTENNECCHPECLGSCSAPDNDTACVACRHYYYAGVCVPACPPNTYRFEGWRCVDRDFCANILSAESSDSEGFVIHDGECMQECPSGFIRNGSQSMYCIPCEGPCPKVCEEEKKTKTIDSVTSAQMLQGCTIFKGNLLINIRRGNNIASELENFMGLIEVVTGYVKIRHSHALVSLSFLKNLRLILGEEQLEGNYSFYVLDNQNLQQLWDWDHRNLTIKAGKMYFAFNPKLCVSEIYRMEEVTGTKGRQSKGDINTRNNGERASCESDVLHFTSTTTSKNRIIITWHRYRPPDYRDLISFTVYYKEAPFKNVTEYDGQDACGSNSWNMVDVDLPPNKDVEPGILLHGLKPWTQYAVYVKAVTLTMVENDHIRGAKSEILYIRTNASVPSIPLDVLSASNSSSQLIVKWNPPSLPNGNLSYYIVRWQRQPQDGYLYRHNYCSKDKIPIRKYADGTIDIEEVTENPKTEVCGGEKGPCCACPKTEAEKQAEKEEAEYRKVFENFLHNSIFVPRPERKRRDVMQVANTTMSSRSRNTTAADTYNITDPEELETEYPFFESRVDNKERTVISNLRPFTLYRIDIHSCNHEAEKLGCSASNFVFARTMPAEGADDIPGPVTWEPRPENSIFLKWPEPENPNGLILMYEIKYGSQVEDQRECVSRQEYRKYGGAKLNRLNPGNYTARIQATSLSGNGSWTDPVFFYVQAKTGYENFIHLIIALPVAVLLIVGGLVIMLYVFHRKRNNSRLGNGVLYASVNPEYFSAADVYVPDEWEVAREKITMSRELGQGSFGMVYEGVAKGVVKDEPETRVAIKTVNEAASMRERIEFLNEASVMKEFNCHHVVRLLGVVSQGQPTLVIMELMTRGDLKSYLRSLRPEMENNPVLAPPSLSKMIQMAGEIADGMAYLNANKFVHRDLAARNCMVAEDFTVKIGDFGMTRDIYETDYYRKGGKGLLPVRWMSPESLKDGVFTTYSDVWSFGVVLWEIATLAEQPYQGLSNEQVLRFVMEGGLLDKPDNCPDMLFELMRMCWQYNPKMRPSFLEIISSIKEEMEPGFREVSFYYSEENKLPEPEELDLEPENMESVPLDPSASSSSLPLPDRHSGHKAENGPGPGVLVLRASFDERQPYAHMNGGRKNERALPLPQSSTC
T5 sequence (P29376 17-864): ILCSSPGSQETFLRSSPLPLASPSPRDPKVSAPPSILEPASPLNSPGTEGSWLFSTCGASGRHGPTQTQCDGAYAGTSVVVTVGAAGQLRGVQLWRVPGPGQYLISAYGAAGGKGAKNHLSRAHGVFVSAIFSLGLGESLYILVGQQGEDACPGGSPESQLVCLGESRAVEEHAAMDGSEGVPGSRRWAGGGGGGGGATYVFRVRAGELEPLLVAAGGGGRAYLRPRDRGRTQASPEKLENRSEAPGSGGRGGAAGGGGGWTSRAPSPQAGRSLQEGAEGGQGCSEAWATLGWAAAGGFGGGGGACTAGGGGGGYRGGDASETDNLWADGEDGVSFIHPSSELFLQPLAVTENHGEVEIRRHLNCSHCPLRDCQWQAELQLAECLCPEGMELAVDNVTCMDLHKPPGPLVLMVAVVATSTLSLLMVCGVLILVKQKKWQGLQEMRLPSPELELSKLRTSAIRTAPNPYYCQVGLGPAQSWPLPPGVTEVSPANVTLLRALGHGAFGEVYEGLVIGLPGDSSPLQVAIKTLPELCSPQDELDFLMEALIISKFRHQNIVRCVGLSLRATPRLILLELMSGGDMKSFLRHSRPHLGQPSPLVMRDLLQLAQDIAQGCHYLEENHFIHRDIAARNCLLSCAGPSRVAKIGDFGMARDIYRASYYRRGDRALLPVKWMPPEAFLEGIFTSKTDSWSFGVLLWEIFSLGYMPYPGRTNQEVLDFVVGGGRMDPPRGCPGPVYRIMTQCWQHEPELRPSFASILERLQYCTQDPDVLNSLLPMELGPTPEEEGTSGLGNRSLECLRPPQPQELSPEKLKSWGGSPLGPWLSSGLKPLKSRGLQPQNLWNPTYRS
T4 sequence (Q9HBH9 whole entry): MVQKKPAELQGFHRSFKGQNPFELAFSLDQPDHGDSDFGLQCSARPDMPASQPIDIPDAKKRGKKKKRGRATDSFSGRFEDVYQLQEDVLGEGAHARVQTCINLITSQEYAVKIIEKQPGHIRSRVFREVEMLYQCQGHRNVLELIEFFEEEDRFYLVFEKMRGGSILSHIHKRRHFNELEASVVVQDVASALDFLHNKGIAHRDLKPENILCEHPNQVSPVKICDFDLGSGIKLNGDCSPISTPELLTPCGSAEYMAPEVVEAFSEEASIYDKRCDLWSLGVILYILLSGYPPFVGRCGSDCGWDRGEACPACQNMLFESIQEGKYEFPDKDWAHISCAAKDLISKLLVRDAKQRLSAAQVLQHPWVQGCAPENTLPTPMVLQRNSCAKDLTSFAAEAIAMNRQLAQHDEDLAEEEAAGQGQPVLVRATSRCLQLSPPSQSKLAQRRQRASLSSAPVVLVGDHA

For `CN1CCN(c2ccc(Nc3nccc(-c4cnn5ncccc45)n3)cc2C#N)CC1` [Compound 1], the inhibition (usually the percentage by which the read-out fell short of the control) at 10 µM at panel of 203 kinases [1] turned out to be 0%; on panel of 203 kinases [2], 97%; at panel of 203 kinases [3], 99.4%; on panel of 203 kinases [4], 97%; at panel of 203 kinases [5], 0%.

For `COc1ccc(Nc2nccc(-c3cnn4ncccc34)n2)cc1` [Compound 2], the inhibition at 10 µM stood at 0% on panel of 203 kinases [1]; 79.3% at panel of 203 kinases [2]; 98.1% on panel of 203 kinases [3]; 99.4% on panel of 203 kinases [4]; 80.8% on panel of 203 kinases [5].

Consider `Cc1ccc(O)cc1Nc1ccnc(Nc2cccc(C(N)=O)c2)n1` [Compound 3], for which the inhibition at 10 µM at panel of 203 kinases [1] stood at 0%; at panel of 203 kinases [2] it was 80.2%; on panel of 203 kinases [3], 0%; at panel of 203 kinases [4], 83.9%; at panel of 203 kinases [5], 0%.

`Cc1ccc(O)cc1N(C)c1ccnc(Nc2cccc(S(N)(=O)=O)c2)n1` [Compound 4]: the inhibition at 10 µM at panel of 203 kinases [1] worked out at 0%; at panel of 203 kinases [2], 98.5%; on panel of 203 kinases [3] it was 0%; on panel of 203 kinases [4], 99.3%; on panel of 203 kinases [5], 69.7%.

Consider `Fc1cccc(COc2ccc(Nc3ncnc4c3CN(CCN3CCOCC3)CC4)cc2Cl)c1` [Compound 6], for which the inhibition at 10 µM at panel of 203 kinases [1], on panel of 203 kinases [2], at panel of 203 kinases [3], on panel of 203 kinases [4] and on panel of 203 kinases [5] was 0% throughout.

Turning to `COc1cc(Nc2nccc(-c3sc(N)nc3-c3cccc(NC(=O)c4c(F)cccc4F)c3)n2)cc(OC)c1OC` [Compound 7], the inhibition at 10 µM was 0% at panel of 203 kinases [1]; 99.7% at panel of 203 kinases [2]; 95.9% at panel of 203 kinases [3]; 100% on panel of 203 kinases [4]; 0% on panel of 203 kinases [5].

In the case of `C[C@@H](Oc1cc(-c2cnc3ccccn23)sc1C(N)=O)c1ccccc1Cl` [Compound 8], the inhibition at 10 µM at panel of 203 kinases [1], on panel of 203 kinases [2], at panel of 203 kinases [3], on panel of 203 kinases [4] and on panel of 203 kinases [5] was 0% each time.

As to `c1ccc(COc2cccc(-c3ccnc4[nH]ccc34)c2)cc1` [Compound 9], the inhibition at 10 µM at panel of 203 kinases [1], at panel of 203 kinases [2], on panel of 203 kinases [3], on panel of 203 kinases [4] and on panel of 203 kinases [5] was 0% throughout.

Regarding `Clc1ccc(Nc2ncc(-c3ccccc3)s2)cc1` [Compound 10], the inhibition at 10 µM on panel of 203 kinases [1] was found to be 0%; on panel of 203 kinases [2], 0%; on panel of 203 kinases [3], 0%; on panel of 203 kinases [4], 65.7%; at panel of 203 kinases [5], 0%.

Take `Nc1ncc2c(-c3ccncc3)c[nH]c2n1` [Compound 11]: the inhibition at 10 µM worked out at 0% at panel of 203 kinases [1]; 82% at panel of 203 kinases [2]; 0% on panel of 203 kinases [3]; 97.3% on panel of 203 kinases [4]; 0% on panel of 203 kinases [5].
